Read-outs that look alike come from different tables or passages of the source.

This passage reports Ki and Km results from paper PMC3628895, “Cloning, expression and characterization of an ethanol tolerant GH3 β-glucosidase from Myceliophthora thermophila” (PeerJ, 2013).

The target in one data set is T1, MtBgl3a (Thermothelomyces thermophilus, UniProt G2QDN2).
T1 construct: gene MYCTH_66804
T1 sequence (G2QDN2 18-733): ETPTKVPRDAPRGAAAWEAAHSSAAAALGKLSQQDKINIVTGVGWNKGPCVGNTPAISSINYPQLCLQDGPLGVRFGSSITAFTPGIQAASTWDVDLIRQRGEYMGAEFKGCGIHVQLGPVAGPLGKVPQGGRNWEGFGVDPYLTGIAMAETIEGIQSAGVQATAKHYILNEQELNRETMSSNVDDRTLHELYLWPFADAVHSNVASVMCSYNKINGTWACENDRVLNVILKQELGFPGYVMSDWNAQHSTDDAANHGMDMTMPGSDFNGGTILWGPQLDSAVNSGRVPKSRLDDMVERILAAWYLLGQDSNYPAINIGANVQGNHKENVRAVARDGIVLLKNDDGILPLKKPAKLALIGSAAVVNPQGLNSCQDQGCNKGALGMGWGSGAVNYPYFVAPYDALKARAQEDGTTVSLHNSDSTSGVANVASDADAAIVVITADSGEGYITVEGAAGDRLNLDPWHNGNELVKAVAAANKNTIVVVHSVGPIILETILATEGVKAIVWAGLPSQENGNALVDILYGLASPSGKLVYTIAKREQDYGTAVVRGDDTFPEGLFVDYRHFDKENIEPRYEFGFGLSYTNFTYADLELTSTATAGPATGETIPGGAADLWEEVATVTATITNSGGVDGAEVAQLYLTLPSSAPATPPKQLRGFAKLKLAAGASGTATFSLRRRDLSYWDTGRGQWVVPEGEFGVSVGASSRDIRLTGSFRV
Briefly: p-nitrophenol release, absorbance […] nm; Michaelis-Menten fit (GraFit). In kind it is biochemical.

Substrate in the data set “purified protein”: O=[N+]([O-])c1ccc(O[C@@H]2O[C@H](CO)[C@@H](O)[C@H](O)[C@H]2O)cc1
The data set can be described thus: purified protein. To be noted: 100 mM citrate-phosphate pH 5.0, 40 °C.

The mark [1] stands for this setting: competitive, substrate p-β-NPG, pH 5.0 citrate-phosphate.

By Ki is commonly meant the equilibrium dissociation constant of an inhibitor or competing ligand from its target. A high value points to a looser hold on the target. For the molecule `O=C(O)[C@H](O)[C@@H](O)[C@H](O)[C@H](O)CO` [D-gluconic acid], the Ki at MtBgl3a came to 22 ± 2 µM.

In turn, `OC[C@H]1OC(O)[C@H](O)[C@@H](O)[C@@H]1O` (stereo partly drawn) [D-glucose] came in with a Ki at MtBgl3a (setting [1]) of 282 ± 100 µM.

`OC1OC[C@@H](O)[C@H](O)[C@H]1O` (stereo partly drawn) [D-xylose] had an inhibitory constant (Ki) on MtBgl3a (setting [1]) of 30 ± 5 µM.

B1: MtBgl3a (Thermothelomyces thermophilus ATCC 42464) (protein)
chain: ETPTKVPRDAPRGAAAWEAAHSSAAAALGKLSQQDKINIVTGVGWNKGPCVGNTPAISSINYPQLCLQDGPLGVRFGSSITAFTPGIQAASTWDVDLIRQRGEYMGAEFKGCGIHVQLGPVAGPLGKVPQGGRNWEGFGVDPYLTGIAMAETIEGIQSAGVQATAKHYILNEQELNRETMSSNVDDRTLHELYLWPFADAVHSNVASVMCSYNKINGTWACENDRVLNVILKQELGFPGYVMSDWNAQHSTDDAANHGMDMTMPGSDFNGGTILWGPQLDSAVNSGRVPKSRLDDMVERILAAWYLLGQDSNYPAINIGANVQGNHKENVRAVARDGIVLLKNDDGILPLKKPAKLALIGSAAVVNPQGLNSCQDQGCNKGALGMGWGSGAVNYPYFVAPYDALKARAQEDGTTVSLHNSDSTSGVANVASDADAAIVVITADSGEGYITVEGAAGDRLNLDPWHNGNELVKAVAAANKNTIVVVHSVGPIILETILATEGVKAIVWAGLPSQENGNALVDILYGLASPSGKLVYTIAKREQDYGTAVVRGDDTFPEGLFVDYRHFDKENIEPRYEFGFGLSYTNFTYADLELTSTATAGPATGETIPGGAADLWEEVATVTATITNSGGVDGAEVAQLYLTLPSSAPATPPKQLRGFAKLKLAAGASGTATFSLRRRDLSYWDTGRGQWVVPEGEFGVSVGASSRDIRLTGSFRV
The Km is the substrate concentration at which the rate is half of its maximum. As to B1, the Km in the data set “purified protein” amounted to 390 ± 120 µM.
